Data as given in article PMC9454848, “BMS-986158, a Small Molecule Inhibitor of the Bromodomain and Extraterminal Domain Proteins, in Patients with Selected Advanced Solid Tumors: Results from a Phase 1/2a Trial” (Cancers, 2022).
Values joined by “and” are separate entries in the source; they are usually repeats but may differ in a detail not shown here. Equal entries are not always repeated. Marks after values point to notes of the source that are not given here.

Test system: patients with advanced solid tumors
Assay: Treatment-related adverse events and dose-limiting toxicities, phase 1/2a trial CA011-001
Assay type: in vivo
Protocol: CA011-001 was an open-label study of BMS-986158 monotherapy. Part 1 of the study included a dose-escalation segment and Part 2 was a dose-expansion phase. In Part 1, escalation occurred with an initial dose of BMS-986158 and increased in prespecified increments above the previous dose level until the first occurrence of any protocol-defined dose-limiting toxicity (DLT). Overall, 3 dosing schedules were evaluated to test safety and efficacy (Supplemental Figure S1). Each patient on schedules A, B, and C was administered a single oral dose of BMS-986158 on cycle 1 day 1 (C1D1), and no additional doses were administered until cycle 2 day 1 (C2D1; ≈7 days after C1D1). Beginning on C2D1 and for each subsequent cycle, patients received treatment according to the following schedules. On schedule A, BMS-986158 was administered once daily (QD) for 5 days on and 2 days off with 0.75-, 1.25-, 2.0-, 3.0-, and 4.5-mg escalating doses. On schedule B, patients received BMS-986158 QD for 14 days on and 7 days off with 2.0- and 3.0-mg doses. On schedule C, BMS-986158 QD was given for 7 days on and 14 days off with 2.0-, 3.0-, and 4.5-mg doses. Dose escalation was guided by a modified toxicity probability interval (mTPI) design. In the mTPI design, 3 to 4 patients would be enrolled at each dose level; if a DLT was observed, an additional 3 to 4 patients would be evaluated at the same dose level, up to a total of 13 patients. If no DLTs occurred, 3 to 4 patients would be enrolled at the next dose level. The target DLT rate was 27% to determine the maximum tolerated dose (MTD). For Part 2 of this trial (the dose-expansion phase), schedule A dosing was selected based on safety, pharmacodynamics, and PK data collected in Part 1. The dosing regimen for Part 2 was 4.5 mg for 2 weeks (10 doses) followed by 3.75 mg for the remainder of treatment. However, because study CA011-001 was terminated early with 1 patient enrolled in Part 2, we have grouped this patient with the schedule A, 4.5-mg cohort in Part 1 for the remainder of this report.
Safety was assessed as adverse events (AEs) coded by the Medical Dictionary for Regulatory Activities version 24.0 and the National Cancer Institute’s Common Terminology Criteria for Adverse Events version 4.03. In addition, AEs were classified by whether they were considered possibly or probably treatment related (TRAEs) by investigator assessment, qualified as a serious AE, or led to interruption or discontinuation of study therapy.
All treated patients who received ≥1 dose of BMS-986158 were evaluated in the safety population. […] All treated patients with available and sufficient serum or plasma samples for the corresponding analytes were included in the PK analyses. […] ECG parameters were evaluated in a categorical analysis, and linear mixed-effects regression modeling was used to describe the quantitative relationship between ΔQTcF and time-matched serum concentrations of BMS-986158 or its metabolite at a single dose.
Descriptive summary statistics, including means and 95% CIs, were calculated using the Clopper-Pearson method for ORR and Kaplan–Meier method for PFS and OS. During dose escalation, an mTPI design targeted a 27% DLT rate to guide escalation decisions and the MTD selection. In the dose-escalation segment, the target enrollment was up to 30 patients per schedule and 3–13 DLT-evaluable patients at a dose level, with an aim to determine the MTD. The totality of the data, including PK, pharmacodynamics, and patient overall safety, including at lower dose levels, was also used to select the RP2D.

[1] = Schedule A (5 days on, 2 days off), n = 46
[2] = Schedule B (14 days on, 7 days off), n = 8
[3] = Schedule C (7 days on, 14 days off), n = 29

Cc1nnn(C)c1-c1cnc2c3ccc(C(C)(C)O)cc3n([C@H](c3ccccc3)C3CCOCC3)c2c1 [BMS-986158]
Treatment discontinuation due to a TRAE (grade 3 myocardial infarction) (1 patient, schedule A group at the 4.5-mg dose, of all patients): 1.2%
Incidence of TRAEs (Schedule A (5 days on, 2 days off)): 72% and 71.7%
Anemia (TRAE), any grade [1]: 6 (13.0) n (%)
Anemia (TRAE), grade ≥ 3 [1]: 2 (4.3) n (%)
Decreased appetite (TRAE), any grade [1]: 5 (10.9) n (%)
Decreased appetite (TRAE), grade ≥ 3 [1]: 0 n (%)
Diarrhea (TRAE), any grade [1]: 19 (41.3) n (%)
Diarrhea (TRAE), grade ≥ 3 [1]: 0 n (%)
Discontinuations due to TRAEs, any grade [1]: 1 (2.2) ^d n (%)
Discontinuations due to TRAEs, grade ≥ 3 [1]: 1 (2.2) ^d n (%)
Fatigue (TRAE), any grade [1]: 8 (17.4) n (%)
Fatigue (TRAE), grade ≥ 3 [1]: 2 (4.3) n (%)
Nausea (TRAE), any grade [1]: 7 (15.2) n (%)
Nausea (TRAE), grade ≥ 3 [1]: 1 (2.2) n (%)
Patients with any TRAE, any grade [1]: 33 (71.7) n (%)
Patients with any TRAE, grade ≥ 3 [1]: 19 (41.3) n (%)
Serious TRAEs, any grade [1]: 3 (6.5) ^a,d n (%)
Serious TRAEs, grade ≥ 3 [1]: 3 (6.5) ^a,d n (%)
Thrombocytopenia (TRAE), any grade [1]: 20 (43.5) n (%)
Thrombocytopenia (TRAE), grade ≥ 3 [1]: 16 (34.8) n (%)
Vomiting (TRAE), any grade [1]: 5 (10.9) n (%)
Vomiting (TRAE), grade ≥ 3 [1]: 0 n (%)
DLT grade 4 thrombocytopenia (Schedule A, 2.0 mg): 1/13
DLT grade 4 thrombocytopenia (Schedule A, 3.0 mg): 1/10
DLT grade 4 thrombocytopenia (Schedule A, 4.5 mg): 2/13
Serious TRAEs, incidence (Schedule A, 3 of 46 patients): 6.5%
Anemia (TRAE), any grade [2]: 2 (25.0) n (%)
Anemia (TRAE), grade ≥ 3 [2]: 2 (25.0) n (%)
Decreased appetite (TRAE), any grade [2]: 4 (50.0) n (%)
Decreased appetite (TRAE), grade ≥ 3 [2]: 0 n (%)
Diarrhea (TRAE), any grade [2]: 4 (50.0) n (%)
Diarrhea (TRAE), grade ≥ 3 [2]: 0 n (%)
Discontinuations due to TRAEs, any grade [2]: 0 n (%)
Discontinuations due to TRAEs, grade ≥ 3 [2]: 0 n (%)
Fatigue (TRAE), any grade [2]: 4 (50) n (%)
Fatigue (TRAE), grade ≥ 3 [2]: 1 (12.5) n (%)
Incidence of TRAEs [2]: 100%
Nausea (TRAE), any grade [2]: 1 (12.5) n (%)
Nausea (TRAE), grade ≥ 3 [2]: 1 (12.5) n (%)
Patients with any TRAE, any grade [2]: 8 (100.0) n (%)
Patients with any TRAE, grade ≥ 3 [2]: 4 (50.0) n (%)
Serious TRAEs, any grade [2]: 2 (25.0) ^b n (%)
Serious TRAEs, grade ≥ 3 [2]: 2 (25.0) ^b n (%)
Thrombocytopenia (TRAE), any grade [2]: 5 (62.5) n (%)
Thrombocytopenia (TRAE), grade ≥ 3 [2]: 2 (25.0) n (%)
Vomiting (TRAE), any grade [2]: 2 (25.0) n (%)
Vomiting (TRAE), grade ≥ 3 [2]: 1 (12.5) n (%)
DLT grade 4 thrombocytopenia (Schedule B, 3.0 mg): 2/4
Serious TRAEs, incidence (Schedule B, 2 of 8 patients): 25.0%
Incidence of TRAEs (Schedule C (7 days on, 14 days off)): 72% and 72.4%
Anemia (TRAE), any grade [3]: 4 (13.8) n (%)
Anemia (TRAE), grade ≥ 3 [3]: 1 (3.4) n (%)
Decreased appetite (TRAE), any grade [3]: 3 (10.3) n (%)
Decreased appetite (TRAE), grade ≥ 3 [3]: 0 n (%)
Diarrhea (TRAE), any grade [3]: 13 (44.8) n (%)
Diarrhea (TRAE), grade ≥ 3 [3]: 0 n (%)
Discontinuations due to TRAEs, any grade [3]: 0 n (%)
Discontinuations due to TRAEs, grade ≥ 3 [3]: 0 n (%)
Fatigue (TRAE), any grade [3]: 4 (13.8) n (%)
Fatigue (TRAE), grade ≥ 3 [3]: 0 n (%)
Nausea (TRAE), any grade [3]: 6 (20.7) n (%)
Nausea (TRAE), grade ≥ 3 [3]: 0 n (%)
Patients with any TRAE, any grade [3]: 21 (72.4) n (%)
Patients with any TRAE, grade ≥ 3 [3]: 5 (17.2) n (%)
Serious TRAEs, any grade [3]: 0 n (%)
Serious TRAEs, grade ≥ 3 [3]: 0 n (%)
Thrombocytopenia (TRAE), any grade [3]: 7 (24.1) n (%)
Thrombocytopenia (TRAE), grade ≥ 3 [3]: 3 (10.3) n (%)
Vomiting (TRAE), any grade [3]: 3 (10.3) n (%)
Vomiting (TRAE), grade ≥ 3 [3]: 1 (3.4) n (%)
Serious TRAEs (Schedule C cohort (n = 29)): no serious TRAEs were reported
DLT grade 4 thrombocytopenia (Schedule C, 4.5 mg): 2/10
Anemia (TRAE), any grade (Total, N = 83): 12 (14.5) n (%)
Anemia (TRAE), grade ≥ 3 (Total, N = 83): 5 (6.0) n (%)
Decreased appetite (TRAE), any grade (Total, N = 83): 12 (14.5) n (%)
Decreased appetite (TRAE), grade ≥ 3 (Total, N = 83): 0 n (%)
Diarrhea (TRAE), any grade (Total, N = 83): 36 (43.4) n (%)
Diarrhea (TRAE), grade ≥ 3 (Total, N = 83): 0 n (%)
Discontinuations due to TRAEs, any grade (Total, N = 83): 1 (1.2) ^d n (%)
Discontinuations due to TRAEs, grade ≥ 3 (Total, N = 83): 1 (1.2) ^d n (%)
Fatigue (TRAE), any grade (Total, N = 83): 16 (19.3) n (%)
Fatigue (TRAE), grade ≥ 3 (Total, N = 83): 3 (3.6) n (%)
Nausea (TRAE), any grade (Total, N = 83): 14 (16.9) n (%)
Nausea (TRAE), grade ≥ 3 (Total, N = 83): 2 (2.4) n (%)
Patients with any TRAE, any grade (Total, N = 83): 62 (74.7) n (%)
Patients with any TRAE, grade ≥ 3 (Total, N = 83): 28 (33.7) n (%)
Serious TRAEs, any grade (Total, N = 83): 5 (6.0) ^c,d n (%)
Serious TRAEs, grade ≥ 3 (Total, N = 83): 5 (6.0) ^c,d n (%)
Thrombocytopenia (TRAE), any grade (Total, N = 83): 32 (38.6) n (%)
Thrombocytopenia (TRAE), grade ≥ 3 (Total, N = 83): 21 (25.3) n (%)
Vomiting (TRAE), any grade (Total, N = 83): 10 (12.0) n (%)
Vomiting (TRAE), grade ≥ 3 (Total, N = 83): 2 (2.4) n (%)
Anemia as any-grade TRAE, incidence (all patients): 14.5%
Decreased appetite as any-grade TRAE, incidence (all patients): 14.5%
Fatigue as any-grade TRAE, incidence (all patients): 19.3%
Nausea as any-grade TRAE, incidence (all patients): 16.9%
Thrombocytopenia as grade ≥ 3 TRAE, incidence (all patients): 25.3%
Vomiting as any-grade TRAE, incidence (all patients): 12.0%
Thrombocytopenia as TRAE, incidence (all patients, any grade): 39% and 38.6%
Diarrhea as TRAE, incidence (all treatment schedule cohorts, 83 patients, any grade): 43% and 43.4%
Patients who experienced DLTs (among 83 patients, all in part 1): 9
Patients with grade 3 nausea as a DLT (of 4 patients, Schedule B, 2.0-mg cohort): 1
Serious TRAEs, incidence (overall study population, 5 of 83 patients): 6%
